In the Bradley open melting point set (2014):
Counter-ions that a name gives are not always drawn.

| Compound | melting point |
| --- | --- |
| C=C(C)CCC(=C)C [2,5-dimethyl-1,5-hexadiene] | -75 °C |
| CCCc1ccccc1 [N-propylbenzene] | -100 °C |
| COc1ccc(C(=O)CCC(=O)O)cc1OC [3-(3,4-dimethoxybenzoyl)propionic acid] | 160 °C |
| CCc1ccc(O)cc1 [4-Ethylphenol] | 43.5 °C |
| COC(=O)C(=O)OC [dimethyl oxalate] | 52 °C |
| Cc1cccc2c1Cc1ccccc1-2 [1-methylfluorene] | 85 °C |
| CC(=O)CCC(C)=O [2,5-hexanedione] | -6 °C |
| OCc1ccc(Cl)cc1 [(4-Chlorophenyl)methanol] | 71 °C |
| C/C=C/c1ccc(OC)cc1 [trans-anethole] | 23 °C |
| CC1(C)[C@@H]2CC[C@]13CS(=O)(=O)N[C@@H]3C2 [(1S,2R)-10,2-camphorsultam] | 183 °C |
| Cc1cc(C)c(NC(=O)CN(CC(=O)O)CC(=O)O)c(C)c1Br | 194 °C |
| O=C(O)\C=C(/C)C [B,B-dimethylacrylic acid] | 69.5 °C |
| CN(C)C(=O)Nc1ccc(Cl)cc1 [N-(4-chlorophenyl)-N',N'-dimethylurea] | 173 °C |
| Nc1ccn([C@@H]2O[C@H](CO)[C@@H](O)[C@@H]2O)c(=O)n1 [Cytarabine] | 212 °C |
| CC(C)C(=O)O [Isobutyric Acid] | -46 °C |
| CCOC(=O)c1ccc(O)cc1 [ethylparaben] | 116 °C |
| C1CC[C@H]2CCCC[C@H]2C1 [cis-Decahydronaphthalene] | -43 °C |
| CCCCOC(=O)c1ccc(O)cc1 [butyl 4-hydroxybenzoate] | 69 °C |
| O=C(O)Cc1c(F)cccc1F [2,6-difluorophenylacetic acid] | 101 °C |
| N#Cc1cc(Cl)cc(Cl)c1 [3,5-dichlorobenzonitrile] | 66 °C |
| Cc1ccc(B(O)O)cc1C [3,4-dimethylbenzeneboronic acid] | 220 °C |
| COC(=O)C1=Nc2ccccc2C1(C)C [methyl 3,3-dimethyl-3H-indole-2-carboxylate] | 75 °C |
| CCC(C)C1(CC)C(=O)NC(=O)NC1=O (centres undefined) [butabarbital] | 166 °C |
| CCCCC(=O)OCC(=O)[C@]1(O)Cc2c(O)c3c(c(O)c2[C@@H](OC2CC(NC(=O)C(F)(F)F)C(O)C(C)O2)C1)C(=O)c1c(OC)cccc1C3=O (some centres undefined) [Valrubicin] | 116 °C |
| O=C(O)Cc1ccc(Oc2ccccc2)cc1 [4-phenoxyphenylacetic acid] | 76 °C |

| Compound | melting point |
| --- | --- |
| O=C1CCC(N2C(=O)c3ccccc3C2=O)C(=O)N1 (centres undefined) [Thalidomide] | 275 °C |
| O=C1Nc2ccc(Cl)cc2C(c2ccccc2Cl)=NC1O (centres undefined) [lorazepam] | 167 °C |
| CCSC(SCC)C(OC(C)=O)C(OC(C)=O)C(OC(C)=O)C(COC(C)=O)OC(C)=O (centres undefined) | 112 °C |
| O=S(=O)(Cl)Cc1ccc(F)cc1 [4-fluoro-alpha-toluenesulfonyl chloride] | 60 °C |
| C=CCCCCCCC [1-nonene] | -81 °C |
| O=C(O)c1cc(=O)[nH]c(=O)[nH]1 [orotic acid] | 346 °C |
| COc1ccc(N)c([N+](=O)[O-])c1 [4-methoxy-2-nitroaniline] | 127 °C |
| CCC(=O)c1ccc(OCc2ccccc2)cc1 [4'-benzyloxypropiophenone] | 100 °C |
| C[C@@H]1O[C@H](OC[C@@H]2O[C@H](Oc3c(-c4ccc(O)c(O)c4)oc4cc(O)cc(O)c4c3=O)[C@@H](O)[C@H](O)[C@H]2O)[C@@H](O)[C@H](O)[C@H]1O [Rutin] | 125 °C |
| CC(C)Oc1ccc2c(=O)c(-c3ccccc3)coc2c1 [ipriflavone] | 115 °C |
| O[C@H]1CCCC[C@@H]1O (relative stereo) [trans-1,2-cyclohexanediol] | 104 °C |
| COc1cc(CC(=O)O)c([N+](=O)[O-])cc1OC [4,5-dimethoxy-2-nitrophenylacetic acid] | 207 °C |
| CCOC(=O)C(=O)Nc1ccccc1 [ethyl oxanilate] | 67 °C |
| CCOC(=O)c1ccc(C#N)cc1 [ethyl_p-cyanobenzoate] | 54 °C |
| CC1(C)CCC2=C1CCC1C2CCC2CC(=O)CCC21C (centres undefined) [10,17,17-trimethylgon-13-en-3-one] | 135 °C |
| N#Cc1c(N)sc2c1CCCC2 [2-Amino-4,5,6,7-tetrahydrobenzo(b)thiophene-3-carbonitrile] | 143 °C |
| Cn1c2ccccc2c2ccccc21 [9-Methyl-9H-carbazole] | 91 °C |
| O=C(O)Cn1cncn1 [1h-1,2,4-triazole-1-acetic acid] | 203 °C |
| CN1CCC(=C2c3ccccc3C=Cc3ccccc32)CC1 [cyproheptadine] | 113 °C |
| CC(=O)Nc1ccc(-c2ccc3nn(-c4ccccc4)nc3c2)cc1 [N-[4-(2-phenyl-2H-benzotriazol-5-yl)phenyl]acetamide] | 173 °C |
| Cc1cc[n+]([O-])cc1 [4-picoline n-oxide] | 184 °C |
| c1ccc(COc2cccc(-c3nnn[nH]3)c2)cc1 [5-(3-benzyloxyphenyl)-1h-tetrazole] | 209 °C |
| c1ccc(-c2csc(-c3ccccn3)n2)cc1 [4-phenyl-2-(2-pyridyl)thiazole] | 57 °C |
| O=C(O)Cc1ccc(Br)cc1 [4-bromophenylacetic acid] | 117 °C |
